We go through 14 compounds from patent US20110160308A1, “Use of Monoamine Oxidase Inhibitors to Treat Outer Retina Disorders” (ALCON RESEARCH, LTD., priority 2006, published 2011).

In one data set the target is T1, MAO-B (Rattus norvegicus, UniProt P19643).
T1 construct: of the invention in rat brain mitochondria; from tissue; host or cells: rat brain, crude mitochondrial fraction (male Wistar rats)
T1 sequence (P19643 1-520): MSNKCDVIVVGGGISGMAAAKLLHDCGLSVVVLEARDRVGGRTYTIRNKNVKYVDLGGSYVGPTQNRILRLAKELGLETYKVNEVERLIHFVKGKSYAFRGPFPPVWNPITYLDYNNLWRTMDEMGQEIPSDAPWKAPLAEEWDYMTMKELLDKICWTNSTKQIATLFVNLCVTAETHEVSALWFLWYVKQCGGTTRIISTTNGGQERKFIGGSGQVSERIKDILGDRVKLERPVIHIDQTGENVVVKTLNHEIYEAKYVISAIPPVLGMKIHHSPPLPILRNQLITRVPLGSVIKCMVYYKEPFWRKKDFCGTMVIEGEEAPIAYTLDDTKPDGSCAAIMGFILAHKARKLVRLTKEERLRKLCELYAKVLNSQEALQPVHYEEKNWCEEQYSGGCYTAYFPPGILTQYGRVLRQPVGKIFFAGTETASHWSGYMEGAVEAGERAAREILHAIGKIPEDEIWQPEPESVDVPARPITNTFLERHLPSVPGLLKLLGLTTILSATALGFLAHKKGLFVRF
Description: In vitro MAO-B enzyme activity assay (radioenzymatic, 14C-phenylethylamine) in rat brain mitochondria. Type of data set: biochemical. On the procedure: (§1) In Vitro MAO-A and MAO-B Enzyme Activities Assay
(§2) —Membrane Preparations (Crude Mitochondrial Fraction)
(§3) The crude homogenate was centrifuged at 2220 rpm for 10 minutes at +4° C. and the supernatant recovered. The pellet was homogenized and centrifuged again. The two supernatants were pooled and centrifuged at 9250 rpm for 10 minutes. The pellet was resuspended in fresh buffer and centrifuged at 11250 rpm for 10 minutes at +4° C. The resulting pellet was stored at −80° C.
(§4) —In Vitro Enzyme Activities Assay
(§5) The enzyme activities were assessed with a radioenzymatic assay using the substrates ^14C-serotonin (5-HT) and ^14C-phenylethylamine (PEA) for MAO-A and MAO-B, respectively.
(§6) The mitochondrial pellet (500 μg protein) was resuspended in 0.1 M phosphate buffer (pH 7.4). 500 μl of the suspension were added to a 50 μl solution of the test compound or buffer, and incubated for 30 min at 37° C. (preincubation) then the substrate (50 μl) was added. The incubation was carried out for 30 minutes at 37° C. (^14C-5-HT, 5 μM) or for 10 minutes at 37° C. (^14C-PEA, 0.5 μM).
(§7) After centrifugation, the deaminated metabolites were extracted with 3 ml of diethyl ether (5-HT) or toluene (PEA) and the radioactive organic phase was measured by liquid scintillation spectrometry at 90% efficiency. The amount of neutral and/or acidic metabolites formed as a result of MAO activity was obtained by measuring the radioactivity of the eluate.
(§8) The activity of MAO in the sample, corresponding to a percentage of radioactivity compared with the control activity in the absence of the inhibitor, was expressed as nmoles of substrate transformed/mg protein/min.
(§9) The drug inhibition curves were obtained from at least eight different concentration points, each in duplicate (10^−10 to 10^−5 M).

Another data set has as its target T2, MAO-A (Rattus norvegicus, UniProt P21396).
T2 construct: of the invention in rat brain mitochondria; from tissue; host or cells: rat brain, crude mitochondrial fraction (male Wistar rats)
T2 sequence (P21396 1-526): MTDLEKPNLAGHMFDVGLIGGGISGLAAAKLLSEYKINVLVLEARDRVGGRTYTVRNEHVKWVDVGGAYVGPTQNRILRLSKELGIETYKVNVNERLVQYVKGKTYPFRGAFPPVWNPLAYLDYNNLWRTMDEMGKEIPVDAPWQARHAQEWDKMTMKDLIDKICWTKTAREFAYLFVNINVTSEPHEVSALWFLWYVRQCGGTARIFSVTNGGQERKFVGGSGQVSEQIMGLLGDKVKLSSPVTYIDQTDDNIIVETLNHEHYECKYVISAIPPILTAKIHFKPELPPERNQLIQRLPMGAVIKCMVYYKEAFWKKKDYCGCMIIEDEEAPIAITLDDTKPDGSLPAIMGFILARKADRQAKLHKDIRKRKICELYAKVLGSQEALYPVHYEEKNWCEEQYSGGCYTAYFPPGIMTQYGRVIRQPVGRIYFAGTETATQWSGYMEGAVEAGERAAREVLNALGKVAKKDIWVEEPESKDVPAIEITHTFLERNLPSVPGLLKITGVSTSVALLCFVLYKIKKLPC
Description: In vitro MAO-A enzyme activity assay (radioenzymatic, 14C-serotonin) in rat brain mitochondria. Format: biochemical. On the procedure:
as §1, §2, §3, §4, §5, §6, §7, §8, §9

The subject of data set [1] is mouse closed head injury model. Particulars: 1 mg/kg; cited from earlier work.
The test system of data set [2] is light-induced functional or morphological changes. Nature of the data set: Light damage paradigms used by the present inventors. Type of data set: in vivo.
Data set [3] relates to rat photo-oxidative induced retinopathy model. Nature of the data set: Rat photo-oxidative induced retinopathy model (blue-light exposure; ERG and retinal morphology). Type of data set: in vivo. The settings on record: 15 to 60 mg/kg IP, 1-month recovery period.
For data set [4] the test system is unchanged. The data set is described as above. Type of data set: in vivo. The settings on record: for Maximum ERG a-wave responses, % of normal: 5 days after 6-hour blue-light exposure. On the procedure:
Neuroprotective Activity of MAO Inhibitors in the Rat Photo-Oxidative Induced Retinopathy Model
Prevention of Photo-oxidative injury with Safinamide: The efficacy of Safinamide, a short acting MAO-B inhibitor, to protect retinal cells against the induction of photochemical lesions by blue-light exposure was assessed by measuring light-induced changes in retinal functioning (electroretinogram (ERG)) and evaluating retinal morphology changes.
Subjects. Male Sprague Dawley rats were randomly assigned to drug or vehicle experimental groups. Rats receiving vehicle (N=15) or drug treatment (Safinamide: 5 mg/kg, N=10; 15 mg/kg, N=10; 30 mg/kg, N=10; and 60 mg/kg, N=9) were pre-dosed (IP) at 48, 24 and 0 hours prior to a 6-hour light exposure (spectrally filtered blue light (˜220 fc)) and 24 and 48 hours after light exposure. Control rats were housed in their home cage under normal cyclic light exposure. Control rats were not dosed with either vehicle or drug.
Retinal Function Assessment. The ERG is a non-invasive clinical measurement of the electrical response of the eye to a flash of light. The a-wave and b-wave are two components of the ERG that are diagnostic of retinal function. The a-wave reflects outer retina function and is generated by interactions between photoreceptor and RPE while the b-wave reflects inner retina function, particularly on-bipolar cells. […] Changes in the a-wave amplitude or latency are diagnostic of outer retina pathology. The ERG was recorded after a five day recovery period from dark-adapted anesthetized rats (ketamine-HCl, 75 mg/Kg; xylazine, 6 mg/Kg). The eye's electrical response to a flash of light was elicited by viewing a ganzfeld. ERGs to a series of light flashes increasing in intensity were digitized to analyze temporal characteristics of the waveform and response voltage-log intensity relationship.
Light Microscopic Assessment of Retinal Lesions. Ocular tissues were fixed in a mixture of paraformaldehyde and glutaraldehyde, dehydrated in an ascending ethanol series, embedded in JB-4 plastic resin, and 1 to 1.5-micron thick sections were analyzed using a quantitative computer image analysis system attached to the microscope. Retinal Pigment Epithelium (RPE), Outer Nuclear Layer (ONL) and Inner to Nuclear Layer (INL) thickness as well as the length of inner segments (IS), where mitochondria are located, and outer segments (OS), which contain the light sensitive photopigment, were measured to assess outer retina protection.

[5] abbreviates: 15 and 60 mg/kg, light microscopy.

For orientation: IC50 means the concentration at which inhibition is half-maximal. Lower therefore signals inhibition by little substance.

Entries after “also recorded” stand apart in the source; their conditions may differ.

At MAO-B, `NC(=O)[C@H](CO)NCc1ccc(OCc2cccc(F)c2)cc1` [(S)-2-[4-(3-Fluoro-benzyloxy)-benzylamino]-3-hydroxy-propionamide] gave an IC50 of 0.14 µM.
For `CN(CC(N)=O)Cc1ccc(OCc2cccc(Cl)c2)cc1` [2-{[4-(3-Chloro-benzyloxy)-benzyl]-methyl-amino}-acetamide], the IC50 on MAO-B worked out at 0.04 µM; at MAO-A it was 50 µM.
On the same counts, the results for `NC(=O)[C@H](CO)NCc1ccc(OCc2cccc(Cl)c2)cc1` [(S)-2-[4-(3-Chloro-benzyloxy)-benzylamino]-3-hydroxy-propionamide] are 0.04 µM and 84 µM.
On the same counts, the results for `C[C@H](NCc1ccc(OCC2CCCCC2)cc1)C(N)=O` [(S)-2-(4-Cyclohexylmethoxy-benzylamino)-propionamide] are 0.03 µM and 301 µM.
On to `C#CCN[C@@H]1CCc2ccccc21` [Rasagiline], for which the cerebral edema reduction in data set [1] is 40-50%.
As to `C[C@H](NCc1ccc(OCc2ccccc2F)cc1)C(N)=O` [(S)-2-[4-(2-Fluoro-benzyloxy)-benzylamino]-propionamide], the IC50 against MAO-B stood at 0.18 µM; against MAO-A it was 228 µM.
For the compound `Fc1ccc(C(c2ccc(F)cc2)N2CCN(C/C=C/c3ccccc3)CC2)cc1` [flunarizine], the “preventing light-induced functional or morphological changes” value in data set [2] is “moderately effective”.
Still for that read-out and setting: next, `COCCOC(=O)C1=C(C)NC(C)=C(C(=O)OC(C)C)C1c1cccc([N+](=O)[O-])c1` (stereo not drawn) [nimodipine]: “no effect”.
Consider `NC(=O)[C@@H](CO)NCc1ccc(OCc2cccc(Cl)c2)cc1` [(R)-2-[4-(3-Chloro-benzyloxy)-benzylamino]-3-hydroxy-propionamide], for which the IC50 at MAO-B is 0.11 µM; at MAO-A, greater than 100 µM.
Regarding `C[C@H](NCc1ccc(OCc2cccc(F)c2)cc1)C(N)=O` [Safinamide, (S)-2-[4-(3-Fluoro-benzyloxy)-benzylamino]-propionamide], the “ERG a- and b-wave function after 1-month recovery” value is “not significantly different from normal; also recorded: normal ERG a- and b-wave function” in data set [3]; “significant and complete retinal function protection” in data set [3] (listed as safinamide). Also, the “Maximum ERG a-wave responses, % of normal” value was 52 % of normal in data set [4] (5 mg/kg IP), “greater than 70 % of normal” in data set [4] (15 mg/kg IP) and “greater than 70 % of normal” in data set [4] (30 mg/kg IP). Also, in data set [4] (60 mg/kg IP, 5 days after blue-light exposure), the “Retinal responses (ERG) compared to control rats” value is “not significantly diminished compared to control rats”. The “photoreceptor segment length compared to vehicle-dosed rats” value in data set [4] (60 mg/kg, light microscopy) is given as “significantly longer”. For the same compound, the retinal lesions result in data set [4] (60 mg/kg, light microscopy) is “devoid of any significant retinal lesions”; in data set [4] (60 mg/kg, light microscopy, listed as safinamide), “devoid of significant retinal lesions”. The “ERG (retinal function) protection compared to vehicle-dosed rats” value in data set [4] (5-60 mg/kg IP, 5-day recovery period) was “Significant dose-dependent protection of retinal function; also recorded: significant ERG protection”. In addition, the “ONL thickness compared to vehicle-dosed rats” value in data set [4] (setting [5]) is “significantly thicker”. Moreover, the “RPE thickness compared to vehicle-dosed rats” value in data set [4] (setting [5]) is “thicker RPE compared to vehicle-dosed rats”. Further, the “reduction in retinal lesions across doses” value in data set [4] (light microscopy, all doses) was “Dose-dependent reduction in retinal lesions”. Further, the IC50 came to 0.09 µM at MAO-B and 584 µM against MAO-A.
Regarding `Cc1c(C)c2c(c(C)c1O)CC[C@@](C)(CCC[C@H](C)CCC[C@H](C)CCCC(C)C)O2` [α-tocopherol], in data set [2], the “preventing light-induced functional or morphological changes” value is recorded as “ineffective”.
Regarding `C[C@H](NCc1ccc(OCc2ccc(F)cc2)cc1)C(N)=O` [(S)-2-[4-(4-Fluoro-benzyloxy)-benzylamino]-propionamide], the IC50 at MAO-B is 0.06 µM; against MAO-A it was 93 µM.
On the same counts, the results for `C[C@H](NCc1ccc(OCc2cccc(Cl)c2)cc1)C(N)=O` [(S)-2-[4-(3-Chloro-benzyloxy)-benzylamino]-propionamide] are 0.03 µM and 114 µM.
On the same counts, the results for `C[C@@H](C(N)=O)N(C)Cc1ccc(OCc2cccc(Cl)c2)cc1` [(S)-2-{[4-(3-Chloro-benzyloxy)-benzyl]-methyl-amino}-propionamide] are 0.06 µM and 82 µM.
